Assay results taken from ChEMBL document CHEMBL3875162, “Synthesis and biological evaluation of new benzimidazole-thiazolidinedione hybrids as potential cytotoxic and apoptosis inducing agents” (Eur J Med Chem, 2016).

Experiments:
[1] = Cytotoxicity against human A549 cells assessed as cell growth inhibition after 48 hrs by MTT assay; format: functional, cell-based; details: A549, 48 h
[2] = Cytotoxicity against human MDA-MB-231 cells assessed as cell growth inhibition after 48 hrs by MTT assay; format: functional, cell-based; details: MDA-MB-231, 48 h
[3] = Cytotoxicity against human DU145 cells assessed as cell growth inhibition after 48 hrs by MTT assay; format: functional, cell-based; details: DU-145, 48 h
[4] = Cytotoxicity against human PC3 cells assessed as cell growth inhibition after 48 hrs by MTT assay; format: functional, cell-based; details: PC-3, 48 h
[5] = Cytotoxicity against human MCF10A cells assessed as cell growth inhibition after 48 hrs by MTT assay; format: toxicity, cell-based, MCF-10A
[6] = tested on: A549; experiment: Selectivity index, ratio of IC50 for human MCF10A cells to IC50 for human A549 cells; format: functional

## CC1CN(C(=O)CN2C(=O)S/C(=C\c3nc4ccccc4n3C(C)C)C2=O)CC(C)O1 (centres undefined)
[1]
  IC50: > 50 µM
[2]
  IC50: > 50 µM
[3]
  IC50: > 50 µM
[4]
  IC50: > 50 µM

## Cn1c(/C=C2\SC(=O)N(CC(=O)N3CCOCC3)C2=O)nc2ccccc21
[1]
  IC50: 38.5 µM
[2]
  IC50: > 50 µM
[3]
  IC50: 41.1 µM
[4]
  IC50: > 50 µM

## CCn1c(/C=C2\SC(=O)N(CC(=O)N3CCc4cc(OC)c(OC)cc4C3)C2=O)nc2ccccc21
[1]
  IC50: 26.2 µM
[2]
  IC50: > 50 µM
[3]
  IC50: > 50 µM
[4]
  IC50: 33.5 µM

## CC(C)n1c(/C=C2\SC(=O)N(CC(=O)N3CCOCC3)C2=O)nc2ccccc21
[1]
  IC50: > 50 µM
[2]
  IC50: > 50 µM
[3]
  IC50: > 50 µM
[4]
  IC50: > 50 µM

## Cn1c(/C=C2\SC(=O)N(CC(=O)N3CCCC3)C2=O)nc2ccccc21
[1]
  IC50: > 50 µM
[2]
  IC50: > 50 µM
[3]
  IC50: > 50 µM
[4]
  IC50: > 50 µM

## CCn1c(/C=C2\SC(=O)N(CC(=O)N3CC(C)OC(C)C3)C2=O)nc2ccccc21 (centres undefined)
[1]
  IC50: > 50 µM
[2]
  IC50: > 50 µM
[3]
  IC50: > 50 µM
[4]
  IC50: > 50 µM

## COc1cc2c(cc1OC)CN(C(=O)CN1C(=O)S/C(=C\c3nc4ccccc4n3C)C1=O)CC2
[1]
  IC50: 13.3 µM
[2]
  IC50: 36 µM
[5]
  IC50 at 48 h: > 100 µM
[3]
  IC50: 37.5 µM
[4]
  IC50: 41.1 µM

## CCn1c(/C=C2\SC(=O)N(CC(=O)Nc3cc(C(C)(C)C)on3)C2=O)nc2ccccc21
[1]
  IC50: 44.8 µM
[2]
  IC50: > 50 µM
[3]
  IC50: > 50 µM
[4]
  IC50: > 50 µM

## CCn1c(/C=C2\SC(=O)N(CC(=O)N3CCCC3)C2=O)nc2ccccc21
[1]
  IC50: 31.2 µM
[2]
  IC50: > 50 µM
[3]
  IC50: 45.1 µM
[4]
  IC50: > 50 µM

## CC1CN(C(=O)CN2C(=O)S/C(=C\c3nc4ccccc4n3C)C2=O)CC(C)O1 (centres undefined)
[1]
  IC50: 29.4 µM
[2]
  IC50: > 50 µM
[3]
  IC50: > 50 µM
[4]
  IC50: > 50 µM

## Cn1c(/C=C2\SC(=O)N(CC(=O)Nc3cc(C(C)(C)C)on3)C2=O)nc2ccccc21
[1]
  IC50: 15.3 µM
[2]
  IC50: 33.8 µM
[6]
  Ratio IC50: 2.5
[5]
  IC50 at 48 h: 38.7 µM
[3]
  IC50: 31.4 µM
[4]
  IC50: > 50 µM

## CCn1c(/C=C2\SC(=O)N(CC(=O)N3CCOCC3)C2=O)nc2ccccc21
[1]
  IC50: > 50 µM
[2]
  IC50: > 50 µM
[3]
  IC50: > 50 µM
[4]
  IC50: > 50 µM

## COc1cc2c(cc1OC)CN(C(=O)CN1C(=O)S/C(=C\c3nc4ccccc4n3C(C)C)C1=O)CC2
[1]
  IC50: 20.6 µM
[2]
  IC50: 30.6 µM
[5]
  IC50 at 48 h: > 100 µM
[3]
  IC50: 29.7 µM
[4]
  IC50: > 50 µM

## Cn1c(/C=C2\SC(=O)N(CC(=O)N3CCCCC3)C2=O)nc2ccccc21
[1]
  IC50: > 50 µM
[2]
  IC50: > 50 µM
[3]
  IC50: > 50 µM
[4]
  IC50: > 50 µM

## CCn1c(/C=C2\SC(=O)N(CC(=O)Nc3nc(-c4ccccc4)cs3)C2=O)nc2ccccc21
[1]
  IC50: > 50 µM
[2]
  IC50: > 50 µM
[3]
  IC50: > 50 µM
[4]
  IC50: > 50 µM

## CC(C)n1c(/C=C2\SC(=O)N(CC(=O)N3CCCC3)C2=O)nc2ccccc21
[1]
  IC50: > 50 µM
[2]
  IC50: > 50 µM
[3]
  IC50: > 50 µM
[4]
  IC50: > 50 µM

## CC(C)n1c(/C=C2\SC(=O)N(CC(=O)Nc3cc(C(C)(C)C)on3)C2=O)nc2ccccc21
[1]
  IC50: > 50 µM
[2]
  IC50: > 50 µM
[3]
  IC50: > 50 µM
[4]
  IC50: > 50 µM

## CC(C)n1c(/C=C2\SC(=O)N(CC(=O)N3CCCCC3)C2=O)nc2ccccc21
[1]
  IC50: 28.2 µM
[2]
  IC50: > 50 µM
[3]
  IC50: 42.2 µM
[4]
  IC50: > 50 µM

## O=c1[nH]cc(F)c(=O)[nH]1 [FLUOROURACIL]
[1]
  IC50: 30.5 µM
[2]
  IC50: 36 µM
[3]
  IC50: 40.6 µM
[4]
  IC50: 45.3 µM

## CCn1c(/C=C2\SC(=O)N(CC(=O)N3CCCCC3)C2=O)nc2ccccc21
[1]
  IC50: > 50 µM
[2]
  IC50: > 50 µM
[3]
  IC50: > 50 µM
[4]
  IC50: > 50 µM
